Assay results as given in patent US4804681A, “Metal complexes having an antineoplastic action and medicaments containing these complexes” (priority 1980, dated 1989).

Tests used:
sarcoma 180 tumor cells = experiment: Sarcoma 180 tumor model (i.p.), median survival time T/C; type: in vivo, female NMRI mice; details: for T/C (median survival time) / cure rate (cured animals/treated animals): single dose
Protocol: 1. Sarcoma 180 tumor model
In each case about 10^6 sarcoma 180 tumor cells in 0.2 ml of physiological saline solution are transferred intraperitoneally (I.P.) to female NMRI mice which are about 6 weeks old and weigh 18 to 20 g. The tumor is kept in passage in the same mouse strain. The tumor cells are removed from freshly killed animals immediately before transplantation. On inoculation, the animals are randomized. 6 mice are used per dosage. Cisplatin and cyclophosphamide are used as the control substances. The number of control groups (untreated animals) is chosen such that it corresponds to about the square root of the total number of groups. The substances are injected intraperitoneally, in each case 24 hours after the transplantation, as suspensions in customary solubilizing agents, such as Tween® (polyoxyethylene derivatives of sorbitan esters).
The stated dose was administered once at the start of the experiment, as described. The factor T/C given in per cent denotes the percentage increase in median survival time of the treated animals compared with the median survival time of the untreated control animals. In some cases, the cure rate, that is to say the number of cured animals in relation to the number of treated animals, is given in the Table, in parentheses after the factor T/C.
The experiment is discontinued as soon as the median survival time T/C of the treated animals has reached 300% of the median survival time of the untreated animals. In calculating the median survival time, the animals still alive at the end of the experiment are taken as being dead at the end of the experiment.

sarcoma 180 cells = experiment: subcutaneously transplanted sarcoma 180, intravenous therapy; type: in vivo, female mice; details: 4 mg/kg i.v. as Tween 60 coprecipitate (1:20), twice weekly for 4 weeks, from 2nd week
Protocol: In a further experiment, about 5×10^6 sarcoma 180 cells were subcutaneously transplanted into twelve female mice on day 0. From the 2nd week after the transplantation, six animals were given intravenous therapy with 4 mg/kg of dichlorobis(benzoylacetonato)titanium(IV) as a Tween® 60 coprecipitate (1:20) in aqueous solution, twice weekly for 4 weeks.

Yoshida sarcoma cells = experiment: subcutaneously transplanted Yoshida sarcoma, intravenous therapy; type: in vivo, female SD rats
Protocol: In a further experiment, about 5×10^6 Yoshida sarcoma cells were subcutaneously transplanted into female SD rats on day 0. In the second week, 4 mg/kg of dichlorobis(benzoylacetonato)titanium(IV) as a Tween® 60 coprecipitate (1:20) in aqueous solution were administered intravenously twice. […] The recidives were treated intravenously twice weekly with the original dose for four weeks.

[1] = tested on: testicular tumors, ovarian tumors, oat-cell carcinomas; details: cited from earlier work
ascitic Ehrlich tumors = details: mice; cited from earlier work
[2] = 4 mg/kg i.v. as Tween 60 coprecipitate (1:20), twice in second week

CC(=O)[CH-]C(=O)c1ccccc1.CC(=O)[CH-]C(=O)c1ccccc1.[Cl-].[Cl-].[Ti+4] [Dichlorobis(benzoylacetonato)titanium(IV)]
T/C (median survival time) (sarcoma 180 tumor cells; 4 mg/kg i.p.): 118%
cure rate (cured animals/treated animals) (sarcoma 180 tumor cells; 4 mg/kg i.p.): 0/6
T/C (median survival time) (sarcoma 180 tumor cells; 16 mg/kg i.p.): 115%
cure rate (cured animals/treated animals) (sarcoma 180 tumor cells; 16 mg/kg i.p.): 0/6
T/C (median survival time) (sarcoma 180 tumor cells; 41 mg/kg i.p.): 291%
cure rate (cured animals/treated animals) (sarcoma 180 tumor cells; 41 mg/kg i.p.): 2/6
T/C (median survival time) (sarcoma 180 tumor cells; 57 mg/kg i.p.): 179%
cure rate (cured animals/treated animals) (sarcoma 180 tumor cells; 57 mg/kg i.p.): 0/6
T/C (median survival time) (sarcoma 180 tumor cells; 82 mg/kg i.p.): 300%
cure rate (cured animals/treated animals) (sarcoma 180 tumor cells; 82 mg/kg i.p.): 4/6
T/C (median survival time) (sarcoma 180 tumor cells; 123 mg/kg i.p.): 212%
cure rate (cured animals/treated animals) (sarcoma 180 tumor cells; 123 mg/kg i.p.): 1/6
T/C (median survival time) (sarcoma 180 tumor cells; 177 mg/kg i.p.): 251%
cure rate (cured animals/treated animals) (sarcoma 180 tumor cells; 177 mg/kg i.p.): 1/6
T/C (median survival time) (sarcoma 180 tumor cells; 259 mg/kg i.p.): 300%
cure rate (cured animals/treated animals) (sarcoma 180 tumor cells; 259 mg/kg i.p.): 5/6
outcome of treatment (sarcoma 180 cells): cured at the end of therapy
recidives after three weeks (plum-sized) (Yoshida sarcoma cells; [2]): two out of three animals
tumor regression (Yoshida sarcoma cells; [2]): The tumor regressed
cured animals after first treatment (Yoshida sarcoma cells; 4 mg/kg i.v. as Tween 60 coprecipitate (1:20), twice in second week, three animals): One animal was cured
cured animals after treatment of recidives (Yoshida sarcoma cells; original dose i.v. twice weekly for four weeks, two animals with recidives): Both animals were cured

N.N.[Cl][Pt][Cl] [cisplatin, cis-diamminedichloroplatinum(II), reference compound]
T/C (median survival time) (sarcoma 180 tumor cells; 1 mg/kg i.p.): 112%
cure rate (cured animals/treated animals) (sarcoma 180 tumor cells; 1 mg/kg i.p.): 0/6
T/C (median survival time) (sarcoma 180 tumor cells; 2 mg/kg i.p.): 133%
cure rate (cured animals/treated animals) (sarcoma 180 tumor cells; 2 mg/kg i.p.): 0/6
T/C (median survival time) (sarcoma 180 tumor cells; 3 mg/kg i.p.): 300%
cure rate (cured animals/treated animals) (sarcoma 180 tumor cells; 3 mg/kg i.p.): 2/6
T/C (median survival time) (sarcoma 180 tumor cells; 5 mg/kg i.p.): 300%
cure rate (cured animals/treated animals) (sarcoma 180 tumor cells; 5 mg/kg i.p.): 5/6
T/C (median survival time) (sarcoma 180 tumor cells; 8 mg/kg i.p.): 300%
cure rate (cured animals/treated animals) (sarcoma 180 tumor cells; 8 mg/kg i.p.): 6/6
T/C (median survival time) (sarcoma 180 tumor cells; 13 mg/kg i.p.): 300%
cure rate (cured animals/treated animals) (sarcoma 180 tumor cells; 13 mg/kg i.p.): 6/6
T/C (median survival time) (sarcoma 180 tumor cells; 22 mg/kg i.p.): 42%
cure rate (cured animals/treated animals) (sarcoma 180 tumor cells; 22 mg/kg i.p.): 0/6
median survival time compared with untreated controls (sarcoma 180 tumor cells; about 20 mg/kg): shorter than that of the untreated control animals
cure of animals (sarcoma 180 tumor cells; about 8 to 10 mg/kg): most of the animals are cured
renal damage and damage to hearing ([1]; after only a single therapeutic dose): found with considerable frequency
nausea and retching [1]: long-lasting severe nausea
antitumor activity ([1]; testicular tumors, ovarian tumors, oat-cell carcinomas): extremly potent antitumor agent

[Cl][Zr+2][Cl].c1cc[cH-]c1.c1cc[cH-]c1 [zirconocene dichloride]
action on ascitic Ehrlich tumors (ascitic Ehrlich tumors): inhibiting action

titanocene dichloride
action on ascitic Ehrlich tumors (ascitic Ehrlich tumors): inhibiting action

CC(=O)C=C([O][Hf]([Cl])([Cl])[O]C(=CC(C)=O)c1ccccc1)c1ccccc1 [Dichlorobis(benzoylacetonato)hafnium(IV)]
T/C (median survival time) (sarcoma 180 tumor cells; 114 mg/kg i.p.): 130%
T/C (median survival time) (sarcoma 180 tumor cells; 172 mg/kg i.p.): 267%
T/C (median survival time) (sarcoma 180 tumor cells; 246 mg/kg i.p.): 300%

CC(=O)[CH-]C(=O)c1ccccc1.CC(=O)[CH-]C(=O)c1ccccc1.[F-].[F-].[Ti+4] [Difluorobis(benzoylacetonato)titanium(IV)]
T/C (median survival time) (sarcoma 180 tumor cells; 4 mg/kg i.p.): 97%
cure rate (cured animals/treated animals) (sarcoma 180 tumor cells; 4 mg/kg i.p.): 0/6
T/C (median survival time) (sarcoma 180 tumor cells; 15 mg/kg i.p.): 115%
cure rate (cured animals/treated animals) (sarcoma 180 tumor cells; 15 mg/kg i.p.): 0/6
T/C (median survival time) (sarcoma 180 tumor cells; 38 mg/kg i.p.): 209%
cure rate (cured animals/treated animals) (sarcoma 180 tumor cells; 38 mg/kg i.p.): 1/6
T/C (median survival time) (sarcoma 180 tumor cells; 52 mg/kg i.p.): 300%
cure rate (cured animals/treated animals) (sarcoma 180 tumor cells; 52 mg/kg i.p.): 4/6
T/C (median survival time) (sarcoma 180 tumor cells; 75 mg/kg i.p.): 154%
cure rate (cured animals/treated animals) (sarcoma 180 tumor cells; 75 mg/kg i.p.): 0/6
T/C (median survival time) (sarcoma 180 tumor cells; 113 mg/kg i.p.): 300%
cure rate (cured animals/treated animals) (sarcoma 180 tumor cells; 113 mg/kg i.p.): 3/6
T/C (median survival time) (sarcoma 180 tumor cells; 162 mg/kg i.p.): 300%
cure rate (cured animals/treated animals) (sarcoma 180 tumor cells; 162 mg/kg i.p.): 4/6
T/C (median survival time) (sarcoma 180 tumor cells; 238 mg/kg i.p.): 300%
cure rate (cured animals/treated animals) (sarcoma 180 tumor cells; 238 mg/kg i.p.): 2/6

[Cl-].[Cl-].[Hf+4].c1cc[cH-]c1.c1cc[cH-]c1 [hafnocene dichloride]
action on ascitic Ehrlich tumors (ascitic Ehrlich tumors): inhibiting action

CC(=O)C=C([O][Zr]([Cl])([Cl])[O]C(=CC(C)=O)c1ccccc1)c1ccccc1 [dichlorobis(benzoylacetonato)zirconium(IV)]
T/C (median survival time) (sarcoma 180 tumor cells; 31 mg/kg i.p.): 234%
T/C (median survival time) (sarcoma 180 tumor cells; 46 mg/kg i.p.): 300%
T/C (median survival time) (sarcoma 180 tumor cells; 68 mg/kg i.p.): 300%
T/C (median survival time) (sarcoma 180 tumor cells; 97 mg/kg i.p.): 300%
T/C (median survival time) (sarcoma 180 tumor cells; 145 mg/kg i.p.): 193%
T/C (median survival time) (sarcoma 180 tumor cells; 208 mg/kg i.p.): 144%

CC(=O)C=C([O][Zr]([Br])([O]C(=CC(C)=O)c1ccccc1)[O]C(=CC(C)=O)c1ccccc1)c1ccccc1 [Bromotris(benzoylacetonato)zirconium(IV)]
T/C (median survival time) (sarcoma 180 tumor cells; 92 mg/kg i.p.): 300%
T/C (median survival time) (sarcoma 180 tumor cells; 209 mg/kg i.p.): 297%
T/C (median survival time) (sarcoma 180 tumor cells; 471 mg/kg i.p.): 187%

CC(=O)C=C([O][Zr]([Br])([Br])[O]C(=CC(C)=O)c1ccccc1)c1ccccc1 [dibromobis(benzoylacetonato)zirconium(IV)]
T/C (median survival time) (sarcoma 180 tumor cells; 54 mg/kg i.p.): 300%
T/C (median survival time) (sarcoma 180 tumor cells; 80 mg/kg i.p.): 300%
T/C (median survival time) (sarcoma 180 tumor cells; 126 mg/kg i.p.): 191%
T/C (median survival time) (sarcoma 180 tumor cells; 172 mg/kg i.p.): 172%
T/C (median survival time) (sarcoma 180 tumor cells; 247 mg/kg i.p.): 184%

CC(=O)[CH-]C(=O)c1ccccc1.CC(=O)[CH-]C(=O)c1ccccc1.[Br-].[Br-].[Ti+4] [Dibromobis(benzoylacetonato)titanium(IV)]
T/C (median survival time) (sarcoma 180 tumor cells; 5 mg/kg i.p.): 103%
cure rate (cured animals/treated animals) (sarcoma 180 tumor cells; 5 mg/kg i.p.): 0/6
T/C (median survival time) (sarcoma 180 tumor cells; 20 mg/kg i.p.): 115%
cure rate (cured animals/treated animals) (sarcoma 180 tumor cells; 20 mg/kg i.p.): 0/6
T/C (median survival time) (sarcoma 180 tumor cells; 50 mg/kg i.p.): 288%
cure rate (cured animals/treated animals) (sarcoma 180 tumor cells; 50 mg/kg i.p.): 1/6
T/C (median survival time) (sarcoma 180 tumor cells; 70 mg/kg i.p.): 300%
cure rate (cured animals/treated animals) (sarcoma 180 tumor cells; 70 mg/kg i.p.): 3/6
T/C (median survival time) (sarcoma 180 tumor cells; 100 mg/kg i.p.): 300%
cure rate (cured animals/treated animals) (sarcoma 180 tumor cells; 100 mg/kg i.p.): 3/6
T/C (median survival time) (sarcoma 180 tumor cells; 150 mg/kg i.p.): 300%
cure rate (cured animals/treated animals) (sarcoma 180 tumor cells; 150 mg/kg i.p.): 4/6
T/C (median survival time) (sarcoma 180 tumor cells; 215 mg/kg i.p.): 273%
cure rate (cured animals/treated animals) (sarcoma 180 tumor cells; 215 mg/kg i.p.): 1/6
T/C (median survival time) (sarcoma 180 tumor cells; 315 mg/kg i.p.): 300%
cure rate (cured animals/treated animals) (sarcoma 180 tumor cells; 315 mg/kg i.p.): 5/6
